Measured values as given in patent US20210267193A1, “Pest Repellent Agent” (Kao Corporation, priority 2018, published 2021).

Assays:
pests = settings: content in the pest repellent composition; existing pest repellents; cited from earlier work
[1] = Measurement of surface tension (Wilhelmy method, Tensiometer K100); format: physicochemical; settings: static surface tension, platinum plate
Protocol: (1) Measurement of Surface Tension
An automatic surface tensiometer: Tensiometer K100 (manufactured by KRUSS GmbH) was used to measure the static surface tension by the Wilhelmy method using a platinum plate in an environment at 25° C.

[2] = Measurement of viscosity (B-type rotational viscometer); format: physicochemical; settings: rotor M2 (12 or 6 rpm) or L adapter (30 rpm) as listed per sample
Protocol: (2) Measurement of Viscosity
Viscometer TVB-10, manufactured by […] Co., Ltd. was used as a B-type rotational viscometer according to JIS K7117-1:1999. As to components to be measured, a viscosity value greatly differs for every sample, and therefore, it is difficult to accurately measure all components under a single measurement condition. Then, the measurement was performed using two types of rotors. The viscosity was first measured at a rotational speed of 12 rpm using a rotor M2 in an environment at 23° C. At this time, the component having a viscosity of 2,500 mPa·s or more was again measured at a rotational speed of 6 rpm, to obtain the viscosity value.
On the other hand, the component having a viscosity of 20 mPa·s or less was again measured at a rotational speed of 30 rpm using an L adapter that is a rotor for low viscosity in an environment of 23° C., to obtain the viscosity value.

Aedes albopictus [3] = assay: Mosquito landing rate on replica skin substrate applied with repellent; format: in vivo; settings: for Landing rate (at 0.25 mg/cm^2): coverage 0.25 mg/cm^2 on polyurethane replica skin substrate
Protocol: (3) Mosquito Landing Rate
The repellent effect of the pest repellent was evaluated in terms of a mosquito landing rate.
(3-1) Preparation of Aedes albopictus
(§1) Female adults of Aedes albopictus were purchased from Mostop Inc. The adults were bred in a room at 28° C. and a relative humidity of 70% RH with a 12-hour light/dark cycle after delivery and appropriately used for tests. During breeding of mosquitoes, a 3% by mass sucrose aqueous solution was given as a feed.
(3-3) Calculation of Mosquito Landing Rate
The mosquito landing rate was determined by applying a repellent onto the aforementioned replica skin substrate in the manner as mentioned below to form a substrate surface, counting the number of mosquitoes landed on the substrate surface, and calculating the mosquito landing rate on the applied surface. This replica skin substrate is a disk having a diameter of 5 cm. Here, the term “landed” means that the mosquito stayed on the replica skin substrate for at least one second.
Four replica skin substrates were prepared, two of which were uniformly applied with a repellent with a fingertip wearing a rubber glove, and the other two were not applied with the repellent. Thereafter, the four substrates were vertically mounted in a glass box having a length, a width, and a height of about 6 cm on each side, such that the applied surface was located inside the boxy. This box has a circular hole with a diameter of 4 cm in the vertical and horizontal directions when viewed from the top, and by setting the aforementioned substrate, a part of the inner wall surface of the box can be made as the substrate surface. Two adjacent surfaces among the four surfaces of the inner wall of the box were set as substrates onto which the repellent was applied.
Four mosquitoes were enclosed in the glass-made box, and a shock was applied to force the mosquitoes to fly, thereby recording on what surface they first landed within 10 seconds. This was repeated 20 times, and the mosquito landing rate on the applied surface was calculated by the following equation.
Mosquito landing rate on applied surface (%)={(Number of mosquitoes landed on two surfaces of replica skin substrates applied with repellent)/(Number of mosquitoes landed on any of four surfaces of replica skin substrates)}×100
In the case of repeating the aforementioned test, fresh unused mosquitoes were used for every test, and the landing rate was calculated as an average.
It is expressed that as the landing rate is lower, the staying of mosquitoes can be suppressed, and the repellent effect is excellent.
In Comparative Example 2, a frosted glass-made substrate (Tempax #240, manufactured by Cosmode Co., Ltd.) was used in place of the replica skin substrate.
The liquid oily component shown in Table 1 was prepared, and the liquid oily component shown in Table 2 was uniformly applied onto the aforementioned replica skin substrate at a coverage of 0.5 mg/cm^2, and the mosquito landing rate was calculated.
In Example 1, each of the liquid oily components shown in Table 3 was uniformly applied onto the replica shin substrate at a coverage of 0.25 mg/cm^2, and the mosquito landing rate was calculated.

Aedes albopictus [4] = assay: Mosquito landing rate using human forearm; format: in vivo; settings: 4 cm x 5 cm test site, 5 mg (0.25 mg/cm^2), about 50 mosquitoes, 28° C., 70% RH
Protocol: (4) Evaluation of Mosquito Landing Rate Using Human Forearm
The repellent effect of the pest repellent on human forearm was evaluated in terms of a mosquito landing rate.
(4-1) Preparation of Aedes albopictus
as §1, with “feed. In order to facilitate the induction to the forearm, before the test, the food was changed to water, and the mosquitoes were fasted for 12 hours or more.” for “feed.”
(4-2) Calculation of Landing Rate
The forearm was washed with a body wash (Biore u, manufactured by Kao Corporation), and water droplets were wiped off with a paper towel, followed by performing acclimatization for 10 minutes at room temperature. Thereafter, a rubber glove (Singer Latex Long Glove M, manufactured by Utsunomiya Seisakusho Co., Ltd.) covering up to the elbow was put on the arm to be measured. The mosquito cannot bite through the rubber glove.
The rubber glove was cut off with scissors to expose a test site of 4 cm×5 cm toward the inside of the forearm. The area around the opening of the rubber glove is reinforced with a pressure-sensitive adhesive tape. Then, the resultant was moved to a constant temperature and constant humidity room (28° C., relative humidity: 70%), followed by performing acclimatization for 3 minutes. 5 mg (0.25 mg/cm^2) of the repellent was applied on the test site with a finger wearing the rubber glove, and immediately thereafter, the arm was inserted into a test box (Bug Dorm-1, manufactured by MegaView Science Co., Ltd., 30 cm×30 cm×30 cm). Approximately 50 test mosquitoes are released in this test box. The mosquito stays on the skin and then begins to bite by placing a needle on the skin. In order to prevent blood sucking into the forearm, mosquitoes are removed by using an inset suction pipe passed through a hole into which the arm is inserted just before starting biting. The measurement was terminated at the time when the total number of mosquitoes that succeeded in landing (reached just before the start of biting) and mosquitoes that touched the skin but escaped without landing reached 15. […] The mosquito landing rate was calculated by the following equation. […]
Each of the liquid oily components shown in Table 4 was applied onto the test site of the human forearm at a coverage of 0.25 mg/cm^2, and the mosquito landing rate on the applied surface of the forearm was calculated.

[5] = coverage 0.5 mg/cm^2 on polyurethane replica skin substrate, stay of at least 1 second counts as landed, lower = better repellent effect
[6] = lower = better repellent effect

Compound | effective amount (pests) [% by mass] | Surface tension (at 25° C.) [1] [mN/m] | Viscosity (at 23° C.) [2] [mPa · s] | Landing rate (at 0.5 mg/cm^2) (Aedes albopictus [3]; [5]) [%] | Landing rate (at 0.25 mg/cm^2) (Aedes albopictus [3]; [6]) [%] | Landing rate on exposed area (at 0.25 mg/cm^2) (Aedes albopictus [4]) [%] | Landing rate (at 0.5 mg/cm^2) (Aedes albopictus [3]; coverage 0.5 mg/cm^2 on frosted glass-made substrate (Tempax #240) in place of replica skin substrate) [%]
CCN(CC)C(=O)c1cccc(C)c1 [DEET, N,N-diethyl-m-toluamide] | ≥ 4 | – | – | – | – | – | –
CC(C)CCCCCCOC(=O)CCCCCC(C)C [Ester oil b1, Isononyl isononanoate] | – | 25 | 6 | 22 | – | – | –
CC(C)CCCCCCCCCCOC(=O)CCCCCC(C)C [Ester oil b2, Isotridecyl isononanoate] | – | 28 | 11 | 15 | – | – | –
CCCCC(CC)C(=O)OCC(C)(C)COC(=O)C(CC)CCCC (centres unmarked) [Ester oil b3, Neopentyl glycol di-2-ethylhexanoate] | – | 28 | – | 12 | – | – | –
CCCCCCCCCCCCCCCC(=O)OC(C)C [Ester oil b4, Isopropyl palmitate] | – | 27 | 7 | 19 | – | – | –
CCCCCCCCCCCCCC(=O)OC(C)C [Ester oil b5, Isopropyl myristate] | – | 28 | 5 | 11 | 11 | 24 | –
CCCCCCCCCC(=O)OCC(C)(C)COC(=O)CCCCCCCCC [Ester oil b6, Neopentyl glycol dicaprate] | – | 28 | 15 | 20 | – | – | –
CCCCCCCCCCCCCCCCOC(C)CC(C)C (centres unmarked) [Ether oil c1, Cetyl-1,3-dimethylbutyl ether] | – | 28 | 7 | 13 | – | 15 | –
CCCCCCCCCCC(CO)CCCCCCCC (centres unmarked) [Higher alcohol e1, 2-Octyl dodecanol] | – | 29 | 74 | – | 16 | – | –
CC(C)=CCC/C(C)=C/CC/C(C)=C/CC/C=C(\C)CC/C=C(\C)CCC=C(C)C [Hydrocarbon oil d3, Squalene] | – | 30 | 42 | 21 | – | 12 | –
CCC(C)OC(=O)N1CCCCC1CCO (centres unmarked) [Icaridin] | ≥ 5 | – | – | – | – | – | –
OCCCO [Polyhydric alcohol fx1, 1,3-Propanediol, reference compound] | – | 48 | 53 | – | – | – | 39
OCC(O)CO [Polyhydric alcohol fx2, Glycerin, reference compound] | – | 65 | – | – | – | 75 | –
CC(C)=CCCC(C)CCO (centres unmarked) [citronellol] | ≥ 10 | – | – | – | – | – | –
Polyglyceryl diisostearate [Ester oil bx1] | – | 27 | 1000 | 21 | – | – | –
